This note sets out measurements from US8987293B2, “Morphinans useful as analgesics” (Phoenix Pharmalabs, Inc., priority 2010, dated 2015).

In assay [1] the target is T1, human delta receptor (Homo sapiens, UniProt P41143).
T1 construct: expressed in transfected cells; host or cells: CHO cells
In words: Opioid receptor binding affinity, [3H]Cl-DPDPE, CHO cell membranes.

The target of assay [2] is T2, human kappa receptor (Homo sapiens, UniProt P41145).
T2 construct: expressed in transfected cells; host or cells: CHO cells
The assay can be described thus: Opioid receptor binding affinity, [3H]U69593, CHO cell membranes.

Assay [3] deals with T1, human delta receptor. The assay can be described thus: [35S]GTP γS binding functional assay, CHO cell membranes. It counts as biochemical. For orientation: Binding of GTPγS marks nucleotide exchange on a G protein.
Assay [4] has as its target T2, human kappa receptor. The description is as above. It counts as biochemical. As to conditions: 1 hr at 25 C.

T1 sequence (P41143 whole entry): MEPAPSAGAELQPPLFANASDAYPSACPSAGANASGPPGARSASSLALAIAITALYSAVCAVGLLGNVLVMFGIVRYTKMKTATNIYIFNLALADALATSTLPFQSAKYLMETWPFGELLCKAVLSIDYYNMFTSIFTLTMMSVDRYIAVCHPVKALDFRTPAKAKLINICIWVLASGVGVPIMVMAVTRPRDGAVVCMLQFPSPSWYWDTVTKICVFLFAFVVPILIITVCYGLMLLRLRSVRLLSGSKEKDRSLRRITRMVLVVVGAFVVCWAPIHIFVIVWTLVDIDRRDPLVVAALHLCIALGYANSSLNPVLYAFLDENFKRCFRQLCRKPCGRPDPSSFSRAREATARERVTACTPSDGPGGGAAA
T2 sequence (P41145 whole entry): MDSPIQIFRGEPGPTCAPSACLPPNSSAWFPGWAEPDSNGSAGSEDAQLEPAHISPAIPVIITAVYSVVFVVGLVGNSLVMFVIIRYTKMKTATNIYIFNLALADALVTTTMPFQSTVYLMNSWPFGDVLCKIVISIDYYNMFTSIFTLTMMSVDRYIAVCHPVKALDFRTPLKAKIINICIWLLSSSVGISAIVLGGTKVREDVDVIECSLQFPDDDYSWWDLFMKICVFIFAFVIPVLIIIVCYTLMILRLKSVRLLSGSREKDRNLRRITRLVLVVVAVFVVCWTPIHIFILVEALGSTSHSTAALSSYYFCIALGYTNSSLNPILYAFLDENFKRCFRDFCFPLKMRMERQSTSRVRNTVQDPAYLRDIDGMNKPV

`C[C@H](C1CC1)N1CC[C@]23CCCC[C@H]2[C@H]1Cc1ccc(O)cc13` [Compound 5]: the values for the inhibitory constant (Ki) at human delta receptor [1] and on human kappa receptor [2] were 2.47 ± 0.1 nM and 0.29 ± 0.1 nM, respectively. The EC50 (as a rule, the concentration that produces a half-maximal response) at human delta receptor [3] came out at 9.01 ± 2.6 nM. Moreover, on human delta receptor [3] ([35S]GTP γS, 1 hr at 25 C), the “percent stimulation at the delta receptor” value was 39.8±3.9%. Also, the “percent stimulation at the kappa receptor” value on human kappa receptor [4] is given as 41.7±5.0%.
